# Source: patent US20250154127A1, “BICYCLIC HETEROARYL COMPOUNDS AND USES THEREOF” (ETERN BIOPHARMA (SHANGHAI) CO., LTD., priority 2022, published 2025)
# Tests used:
# [1] = biological target: TEAD1(210-426) binding to YAP(50-100) (Homo sapiens, UniProt P28347); assay: TR-FRET Assay for TEAD1(210-426) Binding to YAP(50-100); conditions: His-TEAD 10 nM, YAP-Biotin peptide 50 nM
# Experimental: Compounds were performed 3 fold serial dilution, 12 data points, added to 384 well white plate. The final DMSO concentration is 1%, duplicate for each concentration. Then His-TEAD protein was added to a final concentration of 10 nM, and allowed to preincubate for 30 minutes at room temperature. Assay buffer was added as background control.
# YAP-Biotin peptide was added to a final concentration of 50 nM, mixed well, incubate 10 minutes at room temperature. The YAP(50-100) peptide sequence used here is named SEQ ID NO: 2
# The Europium-labeled anti-6×His antibody and APC labeled streptavidin were diluted according to the instructions, this detection solution was mixed 1:1 with reaction solution, incubated 1 hour at room temperature.
# TR-FRET measurements were made on an Envision (Perkin Elmer), using an excitation wavelength of 320 nm and emissions read at 620 nm and 665 nm. The ratio of the 665 nm to the 620 nm multiply 10000 provides a normalized TR-FRET signal that represents the extent of binding.
# Half inhibition concentration IC50 value was calculated by XLfit software.
# MSTO-211H cells = assay: Proliferation Assay (CellTiter-Glo Luminescent Cell Viability Assay); type: cell-based; conditions: Homo sapiens, 96 hours treatment
# Experimental: Example 5: Proliferation Assay
# The effect of compound on YAP driven cancer cells proliferation was assessed in MSTO-211H (ATCC, CRL-2081TM) or NCI-H2052 (ATCC, CRL-5915TM) cells using CellTiter-Glo Luminescent Cell Viability Assay (Promega, G7570).
# Briefly, individual cell lines were seeded in 96-well cell culture plate at the density of 1,500 cells per well and cultured in RPMII1640 (Gibco-A10491-01)+10% FBS (Gibco-10099-141C)+1% Penicillin-Streptomycin (5,000 U/mL, Gibco-15070-063) overnight at 37° C. with 5% CO2 before adding the compounds.
# Following incubation, serial dilutions of compounds dissolved in DMSO were added to each well (3-fold dilution with 9 concentration points). The final concentration of DMSO present in this assay is below 0.5% and make duplication for each compound treated well.
# Following 96 hours treatment, compound mediated cell growth inhibition was measured using CellTiter-Go Luminescent Cell Viability Assay (Promega, G7570). […] CellTiter-Glo in each assay well, mix and incubate at room temperature for 10 min. Read signal using EnVision® Multilabel Plate Reader (Perkin Elmer).
# For data analysis, cell proliferation inhibition was calculated using the following formula:
# Inhibition %=(1−(Compound treated well CTG signal/DMSO well CTG signal))*100.
# IC50 values were calculated using GraphPad Prism software using a four-parameter fit model.
# Chain of TEAD1(210-426) binding to YAP(50-100) (P28347 209-426): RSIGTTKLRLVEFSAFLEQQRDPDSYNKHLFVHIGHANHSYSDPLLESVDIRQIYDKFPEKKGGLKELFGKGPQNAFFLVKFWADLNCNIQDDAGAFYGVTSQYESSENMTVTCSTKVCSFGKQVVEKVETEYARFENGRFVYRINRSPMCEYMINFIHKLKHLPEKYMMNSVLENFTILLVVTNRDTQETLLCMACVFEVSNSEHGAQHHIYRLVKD
SMILES,IC50 [1],IC50 (MSTO-211H cells)
"C[C@@H](c1ccccn1)n1ccc(-c2nn(-c3ccc(OC(F)(F)F)cc3)c3cccnc23)cc1=O [Compound 1, (S)-1-(1-(pyridin-2-yl)ethyl)-4-(1-(4-(trifluoromethoxy)phenyl)-1H-pyrazolo[4,3-b]pyridin-3-yl)pyridin-2(1H)-one]",≤ 100 nM,≤ 1000 nM
"C[C@@H](c1ccccn1)n1ccc(-c2nn(-c3ccc(C(F)(F)F)cc3)c3cccnc23)cc1=O [Compound 2, (S)-1-(1-(pyridin-2-yl)ethyl)-4-(1-(4-(trifluoromethyl)phenyl)-1H-pyrazolo[4,3-b]pyridin-3-yl)pyridin-2(1H)-one]",≤ 100 nM,≤ 1000 nM
"C[C@H](c1ccccn1)n1ccc(-c2nn(-c3ccc(C(F)(F)F)cc3)c3cccnc23)cc1=O [Compound 3, (R)-1-(1-(pyridin-2-yl)ethyl)-4-(1-(4-(trifluoromethyl)phenyl)-1H-pyrazolo[4,3-b]pyridin-3-yl)pyridin-2(1H)-one]",100 to 1000 nM,1000 to 10000 nM
"C[C@@H](c1ccccn1)n1ccc(-c2nn(-c3ccc(F)cc3)c3cccnc23)cc1=O [Compound 4, (S)-4-(1-(4-fluorophenyl)-1H-pyrazolo[4,3-b]pyridin-3-yl)-1-(1-(pyridin-2-yl)ethyl)pyridin-2(1H)-one]",100 to 1000 nM,1000 to 10000 nM
"C[C@@H](c1ccccn1)n1ccc(-c2nn(-c3ccc(Cl)cc3)c3cccnc23)cc1=O [Compound 5, (S)-4-(1-(4-chlorophenyl)-1H-pyrazolo[4,3-b]pyridin-3-yl)-1-(1-(pyridin-2-yl)ethyl)pyridin-2(1H)-one]",≤ 100 nM,1000 to 10000 nM
"C[C@@H](c1ccccn1)n1ccc(-c2nn(-c3cccc(C(F)(F)F)c3)c3cccnc23)cc1=O [Compound 6, (S)-1-(1-(pyridin-2-yl)ethyl)-4-(1-(3-(trifluoromethyl)phenyl)-1H-pyrazolo[4,3-b]pyridin-3-yl)pyridin-2(1H)-one]",100 to 1000 nM,1000 to 10000 nM
"CCC(c1ccccn1)n1ccc(-c2nn(-c3ccc(C(F)(F)F)cc3)c3cccnc23)cc1=O (stereo not shown) [Compound 7, 1-(1-(pyridin-2-yl)propyl)-4-(1-(4-(trifluoromethyl)phenyl)-1H-pyrazolo[4,3-b]pyridin-3-yl)pyridin-2(1H)-one]",≤ 100 nM,1000 to 10000 nM
"CC(C)n1ccc(-c2nn(-c3ccc(C(F)(F)F)cc3)c3cccnc23)cc1=O [Compound 8, 1-isopropyl-4-(1-(4-(trifluoromethyl)phenyl)-1H-pyrazolo[4,3-b]pyridin-3-yl)pyridin-2(1H)-one]",100 to 1000 nM,≤ 1000 nM
"C[C@@H](c1ccccn1)n1ccc(-n2nc(-c3ccc(C(F)(F)F)cc3)c3ncccc32)cc1=O [Compound 9, (S)-1-(1-(pyridin-2-yl)ethyl)-4-(3-(4-(trifluoromethyl)phenyl)-1H-pyrazolo[4,3-b]pyridin-1-yl)pyridin-2(1H)-one]",≤ 100 nM,≤ 1000 nM
"Cn1ccc(-c2nn(-c3ccc(C(F)(F)F)cc3)c3cccnc23)cc1=O [Compound 10, 1-methyl-4-(1-(4-(trifluoromethyl)phenyl)-1H-pyrazolo[4,3-b]pyridin-3-yl)pyridin-2(1H)-one]",> 1000 nM,
"C[C@@H](c1ccccn1)n1ccc(-c2nn(-c3ccc(C(F)(F)F)cc3)c3ccccc23)cc1=O [Compound 11, (S)-1-(1-(pyridin-2-yl)ethyl)-4-(1-(4-(trifluoromethyl)phenyl)-1H-indazol-3-yl)pyridin-2(1H)-one]",≤ 100 nM,≤ 1000 nM
"O=c1cc(-c2nn(-c3ccc(C(F)(F)F)cc3)c3ccccc23)ccn1Cc1ccccn1 [Compound 12, 1-(pyridin-2-ylmethyl)-4-(1-(4-(trifluoromethyl)phenyl)-1H-indazol-3-yl)pyridin-2 (1H)-one]",≤ 100 nM,1000 to 10000 nM
"CN(CCO)c1ccnc(Cn2ccc(-c3nn(-c4ccc(C(F)(F)F)cc4)c4ccccc34)cc2=O)n1 [Compound 79, 1-((4-((2-hydroxyethyl)(methyl)amino)pyrimidin-2-yl)methyl)-4-(1-(4-(trifluoromethyl)phenyl)-1H-indazol-3-yl)pyridin-2(1H)-one]",,≤ 1000 nM
"CNc1nccc(Cn2ccc(-c3nn(-c4ccc(C(F)F)cc4)c4ncccc34)cc2=O)n1 [Compound 144, 4-(1-(4-(difluoromethyl)phenyl)-1H-pyrazolo[3,4-b]pyridin-3-yl)-1-((2-(methylamino)pyrimidin-4-yl)methyl) pyridin-2(1H)-one]",,≤ 1000 nM

# Further lines, with some results ahead:
IC50 [1],SMILES,IC50 (MSTO-211H cells)
≤ 100 nM,"C[C@@H](c1cccnc1)n1ccc(-c2nn(-c3ccc(C(F)(F)F)cc3)c3ccccc23)cc1=O [Compound 13, (S)-1-(1-(pyridin-3-yl)ethyl)-4-(1-(4-(trifluoromethyl)phenyl)-1H-indazol-3-yl)pyridin-2(1H)-one]",≤ 1000 nM
≤ 100 nM,"C[C@@H](c1ccncc1)n1ccc(-c2nn(-c3ccc(C(F)(F)F)cc3)c3ccccc23)cc1=O [Compound 14, (S)-1-(1-(pyridin-4-yl)ethyl)-4-(1-(4-(trifluoromethyl)phenyl)-1H-indazol-3-yl)pyridin-2(1H)-one]",≤ 1000 nM
≤ 100 nM,"O=c1cc(-c2nn(-c3ccc(C(F)(F)F)cc3)c3ccccc23)ccn1Cc1ncccn1 [Compound 15, 1-(pyrimidin-2-ylmethyl)-4-(1-(4-(trifluoromethyl)phenyl)-1H-indazol-3-yl)pyridin-2(1H)-one]",≤ 1000 nM
100 to 1000 nM,"Cc1cc(Cn2ccc(-c3nn(-c4ccc(C(F)(F)F)cc4)c4ccccc34)cc2=O)n(C)n1 [Compound 16, 1-((1,3-dimethyl-1H-pyrazol-5-yl)methyl)-4-(1-(4-(trifluoromethyl)phenyl)-1H-indazol-3-yl)pyridin-2(1H)-one]",≤ 1000 nM
≤ 100 nM,"Nc1ccnc(Cn2ccc(-c3nn(-c4ccc(C(F)(F)F)cc4)c4ccccc34)cc2=O)n1 [Compound 17, 1-((4-aminopyrimidin-2-yl)methyl)-4-(1-(4-(trifluoromethyl)phenyl)-1H-indazol-3-yl)pyridin-2(1H)-one]",≤ 1000 nM
≤ 100 nM,"O=c1cc(-c2nn(-c3ccc(C(F)(F)F)cc3)c3ccccc23)ccn1Cc1cccnc1 [Compound 18, 1-(pyridin-3-ylmethyl)-4-(1-(4-(trifluoromethyl)phenyl)-1H-indazol-3-yl)pyridin-2(1H)-one]",≤ 1000 nM
100 to 1000 nM,C[C@@H](c1ccccn1)n1ccc(-c2nn(-c3ccc(C(F)(F)F)cc3)c3ccc(C(=O)O)cc23)cc1=O [Compound 21],
100 to 1000 nM,"COC(=O)c1ccc2c(c1)c(-c1ccn([C@@H](C)c3ccccn3)c(=O)c1)nn2-c1ccc(C(F)(F)F)cc1 [Compound 22, methyl (S)-3-(2-oxo-1-(1-(pyridin-2-yl)ethyl)-1,2-dihydropyridin-4-yl)-1-(4-(trifluoromethyl)phenyl)-1H-indazole-5-carboxylate]",
100 to 1000 nM,C[C@@H](c1ccccn1)n1ccc(-c2nn(-c3ccc(C(F)(F)F)cc3)c3ccc(C(N)=O)cc23)cc1=O [Compound 23],
100 to 1000 nM,C[C@@H](c1ccccn1)n1ccc(-c2nn(-c3ccc(C(F)(F)F)cc3)c3ccc(C#N)cc23)cc1=O [Compound 25],
100 to 1000 nM,"COC(=O)c1ccc2c(-c3ccn([C@@H](C)c4ccccn4)c(=O)c3)nn(-c3ccc(C(F)(F)F)cc3)c2c1 [Compound 26, methyl (S)-3-(2-oxo-1-(1-(pyridin-2-yl)ethyl)-1,2-dihydropyridin-4-yl)-1-(4-(trifluoromethyl)phenyl)-1H-indazole-6-carboxylate]",
> 1000 nM,O=c1cc(-c2nn(-c3ccc(C(F)(F)F)cc3)c3ccccc23)ccn1C1CCOCC1 [Compound 27],
≤ 100 nM,"C[C@@H](c1ccccn1)n1ccc(-n2nc(-c3ccc(C(F)(F)F)cc3)c3cccnc32)cc1=O [Compound 32, (S)-1-(1-(pyridin-2-yl)ethyl)-4-(3-(4-(trifluoromethyl)phenyl)-1H-pyrazolo[3,4-b]pyridin-1-yl)pyridin-2(1H)-one]",
≤ 100 nM,"C[C@@H](c1ccccn1)n1ccc(-c2nc(-c3ccc(C(F)(F)F)cc3)n3ccccc23)cc1=O [Compound 35, (S)-1-(1-(pyridin-2-yl)ethyl)-4-(3-(4-(trifluoromethyl)phenyl)imidazo[1,5-a]pyridin-1-yl)pyridin-2(1H)-one]",
100 to 1000 nM,"Cn1cc(Cn2ccc(-c3nn(-c4ccc(C(F)(F)F)cc4)c4ccccc34)cc2=O)cn1 [Compound 36, 1-((1-methyl-1H-pyrazol-4-yl)methyl)-4-(1-(4-(trifluoromethyl)phenyl)-1H-indazol-3-yl)pyridin-2(1H)-one]",
